A melting point compilation (Tetko et al.; mined from patent text by program, amines drawn as free bases though some values may be those of a salt)
Non-standard residues stand in square brackets, D forms with d. Residues, ends and D or L forms follow the SMILES beside them. *: point of attachment. Tic = O=C(O)[C@@H]1Cc2ccccc2CN1; Abu = CC[C@H](N)C(=O)O; NHBu = CCCCN*

melting point | SMILES
180 to 185 °C | CCC(C)S(=O)(=O)NN(CCC(=O)O)C(=O)c1ccc2nc(CCC3CCNCC3)[nH]c2c1 (centres undefined)
124 to 125 °C | Cc1cnnc2c1C(=O)CC(c1cc(Cl)ccc1F)C2 (centres undefined)
143 to 145 °C | CCN1c2ncc(CCc3cccc(I)c3)cc2C(=O)N(C)c2ccc(Cl)nc21
109 to 110 °C | COc1nc(-c2ccc(OC(C)C)cc2)sc1C(=O)O
258 to 260 °C | NCc1nc(-c2ccc(-c3cnc4[nH]c(=O)n(CCC5CCOCC5)c4n3)cc2)n[nH]1
61 to 62 °C | OCC(O)COc1noc2ccc(Cl)cc12 (centres undefined)
177 to 178 °C | CCCc1nc(C(C)C)c(C(=O)OCc2ccc(-c3ccccc3C(=O)C(=O)O)cc2)[nH]1
206 to 208 °C | C=CCn1cnnc1-c1c(Cl)c(Cl)cc2nc(OC)c(OC)nc12
102 to 104 °C | Cc1ccc(C)n1-c1ccc(C(=O)N(C)C)cc1
232 to 234 °C | NC(=O)c1sc2nc(N3CCC(NCC(O)c4ccc5c(c4)OCO5)CC3)cc(C(F)(F)F)c2c1N (centres undefined)
233 to 245 °C | CCOC(=O)c1cnc(Cc2ccccc2)c(C)c1Cl
153 to 154 °C | N#Cc1cccc(CSc2nnc(-c3ccnc(NC(=O)CCc4ccccc4)c3)o2)c1
> 250 °C | NS(=O)(=O)c1cnc(-c2cn(-c3cc(-c4ccc(C(F)(F)F)cc4)cc(C(F)(F)F)n3)cn2)s1
170 to 171 °C | Cc1nnc(-c2ccc3occ(-c4ccc(SC(F)(F)F)cc4)c3c2)o1
96 °C | Cc1ccc2c(NCc3ccc(NC(=O)C4CCN(Cc5ccccc5)CC4)cc3)nc(N3CCCC3)nc2c1
136 °C | Cc1nc(-c2ccc(C(F)(F)F)cc2)sc1C(C)(C)Oc1cccc(COC(C)(C)C(=O)O)c1
188 to 190 °C | Cc1ncc(C(=O)NCc2cc(C(F)(F)F)cc(C(F)(F)F)c2)c(-c2ccccc2)n1
237 to 238 °C | Cc1cccc(-c2nc3ccc(Cl)nn3c2-c2ccnc(N)n2)c1
214 °C | CN(c1cccc2cc(C3=NCC(CC(=O)NCCO)S3)[nH]c12)S(=O)(=O)c1cccs1 (centres undefined)
146 °C | CNS(=O)(=O)c1cc(C(=O)c2c(C)oc3ccccc23)ccc1Cl
149 to 151 °C | CCOC(=O)c1csc(/C=C/C(=O)c2ccc3c(c2)C2(C)C4(C)CCC(C4)C2(C)O3)c1 (centres undefined)
195 to 197 °C | Cc1c(C#N)sc2nc(-c3ccc4c(c3)OCO4)nc(N(C)CCO)c12
222 to 225 °C | NC(=O)c1ccccc1-c1n[nH]c(-c2ccccc2)n1
88 to 90 °C | CNC[C@@H](O)c1cc2ccccc2o1
88 to 90 °C | CCOC(=O)c1cnn2c(C(=O)N3CCN(C(=O)OC(C)(C)C)CC3)c(Cc3cccc(F)c3C)c(-c3ccccc3)c2c1Cl
156 to 160 °C | COC(=O)c1scc2nc(SCc3cc(OC)ccn3)[nH]c12
160 to 162 °C | COc1c(C2CCN(CCCCNC(=O)c3oc(-c4ccc(C#N)cc4)nc3CO)CC2)ccc2c1CCCC2
226 to 228 °C | O=C1c2cc(O)ccc2CN1c1ccc2sccc2c1
65.5 to 67.5 °C | OCCc1cc(-c2ccc(Cl)cc2)no1
> 300 °C | Cc1ccc2c(=O)c(S(=O)(=O)Cl)cn(C)c2c1

The remaining lines, values behind:

SMILES | melting point
COc1ccc(-c2ccccc2-c2ccc(S(N)(=O)=O)cc2)cc1Cl | 180 °C
O=C1CSC(c2cccc(Cl)c2)c2cc(C(=O)c3ccc(Cl)cc3)ccc2N1 (centres undefined) | 222 °C
O=Cc1ccccc1-c1nc2ccccc2o1 | 117 to 120 °C
O=C1C(c2ccccc2)=C(c2cccc(Cl)c2)C(=O)N1c1ccc(Cl)cc1 | 51 °C
Cn1ncc2c1-c1cn[nH]c1CC2 | 180 to 186 °C
COCN(C(=O)CCl)c1c([N+](=O)[O-])cccc1[N+](=O)[O-] | 106 to 108 °C
CCOc1nn(-c2ccc(C(F)(F)F)cn2)cc1CCCOc1ccc(OC(C)(C)C(=O)O)cc1 | 91 to 92 °C
CN(C)c1cc(NC(=O)c2ccccc2-c2ccc(C(F)(F)F)cc2)cnc1OCCCC1(C(=O)NCC(F)(F)F)c2ccccc2-c2ccccc21 | 140 to 141 °C
CCC(CC)Sc1cc2c(cc1Cl)N=C(CCl)NS2(=O)=O | 213 to 214 °C
COC(C)(CC(=O)Nc1ccccc1)OC | 80 °C
CON(C)C(=O)C1(C)CCc2c(C)c(O)c(C)c(C)c2O1 (centres undefined) | 139 to 140 °C
O=C(O)C(=NOCc1ccccc1)c1csc2ccccc12 | 120 to 121 °C
CC(C)CC(C(N)=O)N1C(=O)c2ccccc2C1=O (centres undefined) | 173 to 176 °C
CC(C)N1CC(CCN2CCN(c3ccccc3)CC2)OC1=O (centres undefined) | 74 to 75 °C
O=C(CCC(C(=O)O)N1C(=O)c2ccccc2C1=O)OCc1ccccc1 (centres undefined) | 96 to 98 °C
CS(=O)(=O)C1C(O)C(CO)OC1n1ccc(=O)[nH]c1=O (centres undefined) | 227 to 228 °C
COC(=O)C#CC(=O)c1cccc(OC)c1 | 32 to 34 °C
C=Cc1ccc(S(N)(=O)=O)cc1 | 130 to 132 °C
COc1cc(CN2CCC(=O)C(C(c3ccccc3)c3ccccc3)C2)ccc1O (centres undefined) | 131 to 132 °C
CC(C)Oc1cc(-n2c(=O)c(F)c(C(F)(F)C(F)(F)F)n(C)c2=O)c(F)cc1Cl | 107 to 109 °C
COC(=O)c1c(Cl)cc(Cl)cc1NC(=O)CSc1cccc(OC)c1 | 89 to 90 °C
CCOC(=O)Cc1c(C(=O)OCC)c(C)cn1CCO | 133 to 135 °C
CCCCOc1ccc(S(=O)(=O)C2(C(=O)O)CCN(Cc3ccc(OC)cc3)CC2)cc1 | 173 °C

SMILES | melting point
C=C1N(S(=O)(=O)c2ccc(C)cc2)C(=O)OC12CCN(Cc1ccccc1)CC2 | 157 to 158 °C
Cc1ccccc1NC(=O)Nn1c(=O)c(=O)[nH]c2ccccc21 | > 300 °C
O=C1c2ccccc2C(O)N1CCCBr (centres undefined) | 79 °C
CCN(CC)c1ccc([N+](=O)[O-])c(N2CCN(C(C)=O)CC2)n1 | 120 °C
O=S(=O)(O)CCCNC1CCCCCC1 | 341 to 343 °C
CS(=O)(=O)Nc1c(-c2ccccc2)c(=O)[nH]c2cc(Cl)ccc12 | 222 to 224 °C
Clc1ccc(Oc2c(-c3ccco3)sc3cnccc23)cc1 | 75 to 77 °C
CCOP(=S)(OCC)ON=C1C=CC(=C(C#N)c2ccccc2)C=C1 | 66 to 82 °C
O=c1ccc(-c2ccc(-n3cnc4c3CCCC4)cc2)n[nH]1 | 266 to 267 °C
COc1cc2c(cc1OC)NC1=C(C2)C(=O)N(C)CN1 | 225 to 230 °C
CCOc1cc(CCl)nc(OCC)n1 | 38 to 39 °C
CCN(CC)CCNC(=O)Cn1cc(-c2ccccc2)c(-c2ccccc2)n1 | 80 to 83 °C
CC1CN(CCCCC(c2ccc(F)cc2)c2ccc(F)cc2)CCN1CC(=O)Nc1c(Cl)cc(NC(N)=O)cc1Cl (centres undefined) | 120 °C
CC(C)c1ccc(NC(=O)Oc2ccc3c(c2)CCN3Cc2ccccc2)cc1 | 145 to 150 °C
Cc1csc(C(O)(c2nccs2)C(F)(F)F)n1 (centres undefined) | 89 to 90 °C
CC(C)CC1CCCCc2c1oc(=O)c(C(c1ccccc1)C1CC1)c2O (centres undefined) | 164 to 167 °C
Clc1ccc(Nc2nncc3ccccc23)cc1 | 211 °C
CN1CCC(c2c[nH]c3ccc(Sc4ccccc4)cc23)CC1 | 147 to 150 °C
CC(=O)NCCc1nnc(S)s1 | 157 to 160 °C
Brc1c(OCc2ccc3ccccc3n2)ccc2ccccc12 | 130 to 132 °C
CN1CC(=O)C(C#N)=C1N | 300 °C
CC(C)Cc1nn(C)c(=O)c2c(SCCCO)n(Cc3ccccc3)cc12 | 91 to 92 °C
O=C(Nc1ccncc1)Nc1ccc(-c2nc(N3CCOCC3)c3nnn(C4CCOCC4)c3n2)cc1 | 332 °C

SMILES | melting point
O=C(O)c1cc(F)c(F)cc1NC(=O)c1cc(-c2ccc(Cl)cc2)oc1C(F)(F)F | 337 to 340 °C
COc1c(Cl)cc2nc3c(=O)[nH][nH]c(=O)c3c(O)c2c1Cl | 210 to 211 °C
O=S=c1cc(-c2ccc(Cl)cc2)ss1 | 123 to 125 °C
O=C1C(Cl)=C(c2ccccc2)C(=O)N1c1ccc(Cl)cc1 | 116 to 117 °C
COc1ccc(NC(=O)C(=O)N2CCC(Cc3ccccc3)CC2)cc1 | 144 to 146 °C
COc1cc(C(=O)N2CCNC(C(=O)N(C)C)C2)cc(OC)c1OC (centres undefined) | 167 to 168 °C
O=S(=O)(c1cccc2c(Cl)cccc12)N1CC2CCC(CC2)C1 | 105 to 106 °C
CCCCCNC(=O)N(C)c1cccc(-c2ccc(C=C(OC)C(=O)O)cc2OCCOCC)c1 | 78.2 °C
CNCC1CCN(c2c(F)cc3c(=O)c(C(=O)O)cn4c3c2OCC4C)C1 (centres undefined) | 235 to 238 °C
CCOP(=O)(OCC)c1cccc(OCc2ccc3ccccc3c2)c1 | 55 to 57 °C
O=C(NCC12CC3CC(CC(C3)C1)C2)c1cc(OCCO)ncc1Cl | 154 to 155 °C
Cc1nc2c(cc1C(=O)NC(=N)N)CCCCC2CS(=O)(=O)O (centres undefined) | 245 to 247 °C
CCOC(=O)/C(=N\O[C@@H]1CCCC[C@@H]1C)c1csc(N)n1 (relative stereo) | 123 to 126 °C
Cc1cc(=O)oc2nn(C(C)C)c(C)c12 | 164 to 166 °C
CC(C)c1nc2cc(NC(=O)c3c(C(=O)O)cnn3C)ccn2n1 | > 250 °C
COc1ccc(Cl)cc1NC(=O)[C@H]1[C@H](c2ccc(S(N)(=O)=O)cc2)C12CCCCC2 (relative stereo) | 118 to 121 °C
COc1cccc2c1Sc1ccc(C(C)C(=O)O)cc1C(=O)C2 (centres undefined) | 176 to 178 °C
O=C1N=NC(=O)c2c1[nH]c1cccc(Br)c21 | > 260 °C
CCOC(=O)COC1CCC2C3CCC4N(C)C(=O)CCC4(C)C3CCC12C (centres undefined) | 39 to 41 °C
CCCCNC(=O)[C@@H]1Cc2ccccc2CN1C(=O)[C@@H](N)CC (H-[Abu]-[Tic]-NHBu) | 105 to 110 °C
COC(=O)[C@H](Cc1ccc(OCC2CCCN(C(=O)OC(C)(C)C)C2)cc1)NC(=O)[C@@H]1CCCN1S(=O)(=O)c1ccc(C)cc1 (some centres undefined) | 82 to 84 °C
Nc1ncc(-c2cccc(OCc3ccccc3)c2)cc1C(=O)NC1CC1 | 177 to 178 °C
CNc1c2c(nc3ccccc13)CCCC2=O | 116 to 117 °C
